Series [1] addresses T1, human wildtype CFTR (Homo sapiens, UniProt P13569). In words: Short-circuit current measurements, apical chloride current in FRT cells. It counts as cell-based. More on the design: expressed in transfected cells; host or cells: FRT (Fisher rat thyroid) cells. The following applies: for inhibition of CFTR in short-circuit current analysis (in words): increasing concentration, forskolin-stimulated.
Experimental: Short-circuit current measurements. FRT cells (stably expressing human wildtype CFTR) were cultured on [sequence] filters with 1 cm^2 surface area (Corning-Costar) to resistance >1,000 Ω·cm^2 as described (see, e.g., Ma et al., J. Clin. Invest. 110:1651-1658 ((2002)); Sonawane et al., FASEB J. 20:130-132 (2006)). Filters were mounted in an Easymount Chamber System (Physiologic Instruments, San Diego). For apical current measurements, the basolateral hemichamber contained (in mM): 130 NaCl, 2.7 KCl, 1.5 KH2PO4, 1 CaCl2, 0.5 MgCl2, 10 Na-HEPES, 10 glucose (pH 7.3). The basolateral membrane was permeabilized with amphotericin B (250 μg/ml) for 30 min. In the apical solution 65 mM NaCl was replaced by sodium gluconate, and CaCl2 was increased to 2 mM. Solutions were bubbled with 95% O2/5% CO2 and maintained at 37° C. Current was recorded using a DVC-1000 voltage-clamp (World Precision Instruments) using Ag/AgCl electrodes and 1 M KCl agar bridges.
CFTR was stimulated by cAMP agonist forskolin and increasing concentration of test compounds was added.

The test system of the next series is FRT cells. Put plainly: Cytotoxicity measurements, crystal violet staining of FRT cells. It counts as cell-based, rat. The note with it: 48 h; for % Cell viability 20 μM / % Cell viability 50 μM: crystal violet staining. The method, then:
Cytotoxicity measurements. FRT cells in confluent monolayers were incubated with compounds for 2 days. Cells were washed 3 times, fixed (cytofix, 30 min) and stained with crystal violet (100 μl, 0.5%, 10 min) using standard procedures. Excess crystal violet was removed by washing, and dye was extracted with Sorenson's buffer (0.1 M sodium citrate, 50% ethanol, pH 4.2). Crystal violet was quantified by measurement of absorbance at 650 nm. The percentage crystal violet staining was determined from test wells measured 8 times, compared to blanks (wells not containing cells) and vehicle-treated cells.
Cytotoxicity analysis was performed for Tetrazolo-172, Oxo-172, α-Me-172 and Pyridine-NO-172 (Compound 17) and compared with CFTRinh-172 (Table 3). […] Crystal violet staining was reduced for Tetrazolo-172 and α-Me-172 at 50 μM.

The conditions of series [2]: cited references; cited from earlier work.
Series [3] concerns MDCK cells. In words: MDCK cell cyst model of polycystic kidney disease. The following applies: 10 μM. It counts as cell-based, Canine. From the text: An MDCK cell model of polycystic kidney disease was used to screen CFTR inhibitors of the thiazolidinone and glycine hydrazide classes for reducing cyst formation and expansion. […] Culture of MDCK cells in three-dimensional collagen gels produces a polarized, single-layer, thinned epithelium surrounding a fluid-filled space, apical […] microvilli, a solitary cilium, and apical tight junctions (see, e.g., McAteer et al., Scan Elect Microsc (Pt 3): 1135-1150, 1986; McAteer et al., Scanning Microsc 2: 1739-1763, 1988; and Taide et al., Eur J Clin Invest 26: 506-513, 1996).
Type I MDCK cells (ATCC No. CCL-34) were cultured at 37° C. in a humidified 95% air/5% CO2 atmosphere in a 1:1 mixture of Dulbecco's modified Eagle's medium (DMEM) and Ham's F-12 nutrient medium supplemented with 10% fetal bovine serum (Hyclone), 100 U/mL penicillin and 100 μg/mL streptomycin. To generate cysts, four hundred MDCK cells were suspended in 0.4 ml of ice-cold Minimum Essential Medium containing 2.9 mg/mL collagen (PuRECOL, Inamed Biomaterials, Fremont Calif.), 10 mM HEPES, 27 mM NaHCO3, 100 U/mL penicillin and 100 μg/mL streptomycin (pH 7.4). The cell suspension was plated onto 24-well plates. After gelation, 1.5 mL of MDCK cell medium containing 10 μM forskolin was added to each well and plates were maintained at 37° C. in a 5% CO2 humidified atmosphere.
The compound structures together with their approximate CFTR inhibition potencies (expressed as IC50 values) are provided in FIGS. 3 and 4. Indicated IC50 values for T01-07, T10, T12-14 were reported by Ma et al. (J Clin Invest 110: 1651-1658 (2002)). IC50 values for T08, T11, and T16 were determined by short-circuit analysis performed according to methods described herein. Indicated IC50 values for G01-05, G8-16 were reported by Sonawane et al. (FASEB J. 20: 130-132 (2006); Sonawane et al., Gastroenterology 132:1234-44 (2007)). IC50 values for G06 and G07 were determined by short-circuit current analysis performed according to methods described herein.
Medium containing forskolin and test compounds was changed every 12 h. At day 6, cysts (with diameters >50 μm) and non-cyst cell colonies were counted by phase-contrast light microscopy at 20× magnification (546 nm monochromatic illumination) using a Nikon TE 2000-S inverted microscope. In some experiments, compounds were added to medium in the continued presence of forskolin from day 4 after seeding and the medium containing forskolin and compounds was changed every 12 h for 8 days. Micrographs showing the same cysts in collagen gels (identified by markings on plates) were obtained every 2 days. For determination of cyst growth, cyst diameters were measured using Image J software. At least 10 cysts/well and 3 wells/group were measured for each condition.

Series [4] is described as follows: Solubility measurements in saline (PBS, LC/MS). It counts as physicochemical. The note with it: for Solubility in saline: Table 3, PBS, DMSO <2%; for solubility in saline / aqueous solubility: values in text, LC/MS. The method, then:
Solubility measurements. A saturated compound solution was prepared by addition of DMSO stock to phosphate buffered saline (final DMSO 2%) followed by sonication for 5 min at 25° C. and shaking at room temperature for 1 h. After centrifugation at 15,000 rpm for 1 h, the supernatant was analyzed by LC/MS with concentration determined from area under the curve, standardized against calibration data. A standard curve for each compound was obtained by plotting area under the curve from chromatograms against inhibitor concentration. The concentration range of the standard solutions was 1-15 μM (for 5) and 1-100 μM (other compounds). In all cases, standard curves prepared were linear with r>0.998.
A saturated drug solution of a compound was prepared by addition of the compound in DMSO to phosphate buffered saline (PBS), followed by sonication for 5 min at 25° C. Final concentration of DMSO was <2%. Each saturated solution was centrifuged and filtered. The saturated supernatant solution was diluted and injected into LC/MS. The concentration was determined from area under the curve using a calibration curve.

The target of series [5] is T1, human wildtype CFTR. Put plainly: Fluorescence cell-based assay of CFTR inhibition (YFP iodide influx, FRT cells). Set-up: expressed in transfected cells; host or cells: Fisher rat thyroid (FRT) cells. The following applies: for CFTR inhibitory activity (in words): structure-activity discussion.
Experimental: CFTR inhibition by thiazolidinone derivative compounds was determined by a fluorescence cell-based assay utilizing doubly transfected cells expressing human wild-type CFTR and a yellow fluorescent protein (YFP) iodide sensor, as described (see, e.g., Galietta, et al., J. Physiol. 281:C1734-C1742 (2001)). Fisher rat thyroid (FRT) cells stably expressing wild-type human CFTR and YFP-H148Q were cultured on 96-well black-wall plates as described (see, e.g., Ma, et al., J. Clin. Invest. 110:1651-1658 (2002)). Cells in 96-well plates were washed three times, and then CFTR was activated by incubation for 15 minutes with an activating cocktail containing 10 μM forskolin, 20 μM apigenin, and 100 μM IBMX. Test compounds were added 5 minutes before assay of iodide influx in which cells were exposed to a 100 mM inwardly directed iodide gradient. YFP fluorescence was recorded for 2 seconds before and 12 seconds after creation of the iodide gradient. Initial rates of iodide influx were computed from the time course of decreasing fluorescence after the iodide gradient.
CFTR-facilitated iodide influx following extracellular iodide addition results in quenching of cytoplasmic YFP fluorescence.
Series [6] deals with MDCK cells. Put plainly: MDCK cell cytotoxicity, crystal violet staining. It counts as cell-based, Canine. The note with it: 20 μM, 72 h. The method, then: To test whether inhibition of cyst growth could be related to cytotoxicity, certain compounds were tested for their effects on cell viability, cell proliferation and apoptosis. Crystal violet staining was used to assess compound effects on cytotoxicity (see, e.g., Johnson et al., Clin Cancer Res 11: 6924-6932, 2005). MDCK cells were incubated for 24 h on 96-well plates, and then incubated for 72 h with test compounds at 20 μM. Medium was removed and adherent cells were fixed and stained for 30 min with 0.5% crystal violet in 20% methanol. Plates were washed with distilled water, and the stain was extracted with Sorenson's buffer (0.1 mol/L sodium citrate, pH 4.2, in 50% ethanol) overnight at 4° C., and absorbance measured at 570 nm.

Where [7] appears, read: Table 3, inhibition potency, read-out: IC50.
[8] abbreviates: values in text, forskolin-stimulated CFTR, read-out: IC50 (short-circuit current).
Setting [9] is: Table 1, upper part, CFTR inhibitory activity, given as ranges, read-out: IC50.
Where [10] appears, read: Table 2 summary table, given as ranges, read-out: IC50.
Setting [11] is: Table 1, lower parts, given as ranges, read-out: IC50.

We go through six molecules from patent publication US20110105565A1, “WATER SOLUBLE SMALL MOLECULE INHIBITORS OF THE CYSTIC FIBROSIS TRANSMEMBRANE CONDUCTANCE REGULATOR” (THE REGENTS OF THE UNIVERSITY OF CALIFORNIA, priority 2008, published 2011).

As a reminder, the IC50 is the concentration needed to halve the response being measured.

Converted amounts (≈) assume the structure as drawn. “And” between values parts separate entries of the source, which are not always exact repeats. Equal values may be shown once.

T1 sequence (P13569 whole entry): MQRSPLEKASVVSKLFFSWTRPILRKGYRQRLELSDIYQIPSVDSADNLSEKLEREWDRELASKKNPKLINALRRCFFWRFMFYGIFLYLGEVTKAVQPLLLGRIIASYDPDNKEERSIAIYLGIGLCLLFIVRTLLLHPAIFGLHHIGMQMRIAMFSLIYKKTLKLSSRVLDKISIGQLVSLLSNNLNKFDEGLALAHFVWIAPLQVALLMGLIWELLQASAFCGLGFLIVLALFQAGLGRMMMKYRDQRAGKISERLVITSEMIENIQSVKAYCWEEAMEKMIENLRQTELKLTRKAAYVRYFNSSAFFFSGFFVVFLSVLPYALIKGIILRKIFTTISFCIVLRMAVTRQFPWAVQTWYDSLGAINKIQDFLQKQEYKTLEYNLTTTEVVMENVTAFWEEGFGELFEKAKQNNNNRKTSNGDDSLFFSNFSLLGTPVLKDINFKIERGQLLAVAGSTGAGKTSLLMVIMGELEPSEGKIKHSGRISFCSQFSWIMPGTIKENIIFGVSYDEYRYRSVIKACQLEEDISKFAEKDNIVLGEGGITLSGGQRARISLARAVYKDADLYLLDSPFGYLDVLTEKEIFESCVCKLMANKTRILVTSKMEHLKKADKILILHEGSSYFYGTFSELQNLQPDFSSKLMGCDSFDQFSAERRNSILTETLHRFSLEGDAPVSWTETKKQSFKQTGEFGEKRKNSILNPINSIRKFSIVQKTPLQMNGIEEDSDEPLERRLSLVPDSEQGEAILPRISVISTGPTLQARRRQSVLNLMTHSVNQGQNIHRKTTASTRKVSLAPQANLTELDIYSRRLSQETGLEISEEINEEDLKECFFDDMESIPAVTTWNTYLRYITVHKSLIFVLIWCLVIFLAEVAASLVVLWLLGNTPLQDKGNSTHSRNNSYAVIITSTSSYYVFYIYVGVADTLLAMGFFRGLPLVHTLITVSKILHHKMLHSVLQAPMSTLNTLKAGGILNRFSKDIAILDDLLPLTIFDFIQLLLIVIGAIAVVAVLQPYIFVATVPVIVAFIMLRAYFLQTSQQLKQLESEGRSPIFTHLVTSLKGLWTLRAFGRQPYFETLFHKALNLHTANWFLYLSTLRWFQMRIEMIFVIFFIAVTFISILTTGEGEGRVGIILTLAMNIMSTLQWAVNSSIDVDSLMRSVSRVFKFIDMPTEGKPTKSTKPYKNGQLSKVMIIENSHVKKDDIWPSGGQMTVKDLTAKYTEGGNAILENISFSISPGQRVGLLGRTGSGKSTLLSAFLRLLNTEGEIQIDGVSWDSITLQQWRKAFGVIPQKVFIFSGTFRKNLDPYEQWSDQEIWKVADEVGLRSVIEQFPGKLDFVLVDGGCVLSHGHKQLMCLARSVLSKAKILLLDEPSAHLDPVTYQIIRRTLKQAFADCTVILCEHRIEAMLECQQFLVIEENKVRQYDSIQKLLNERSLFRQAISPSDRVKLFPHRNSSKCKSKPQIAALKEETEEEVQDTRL

`O=C(O)c1ccc(/C=C2\SC(=S)N(c3cccc(C(F)(F)F)c3)C2=O)cc1` [Compound 5, (Z)-4-((4-oxo-2-thioxo-3-(3-(trifluoromethyl)phenyl)thiazolidin-5-ylidene)methyl)benzoic acid, reference compound]: the IC50 on human wildtype CFTR [1] (setting [7]) is 0.38 ± 0.04 µM; at human wildtype CFTR [1] (setting [8]), 0.4 µM and 0.25 to 0.5 µM; on human wildtype CFTR [5] (setting [9]), 0.1 to 1 µM; at human wildtype CFTR [5] (setting [10]), 0.1 to 1 µM. Also, the “% Cell viability 20 μM” value in the series with FRT cells amounted to 86%. The water solubility result in series [2] is reported as “less than 17 μM”. Further, the “effect on MDCK cyst enlargement/formation (in words)” value in the series on MDCK cells [3] is reported as “inhibited cyst formation, but to a lesser extent”. Moreover, in series [4], the “Solubility in saline” value amounted to 17 µM (≈ 6.96 µg/mL).
`O=C1/C(=C/c2cc(Br)c(O)c(Br)c2O)SC(=S)N1c1cccc(C(F)(F)F)c1` [Compound 15, (Z)-5-(3,5-dibromo-2,4-dihydroxybenzylidene)-2-thioxo-3-(3-(trifluoromethyl)phenyl) thiazolidin-4-one]: the “MDCK cell viability (in words)” value with MDCK cells [6] was “reduced MDCK cell viability”. In addition, the IC50 at human wildtype CFTR [5] (setting [9]) and on human wildtype CFTR [5] (setting [10]) was 5 to 10 µM in each case. On human wildtype CFTR [5], the “CFTR inhibitory activity (in words)” value is reported as “modest inhibition activity”.
With `O=C1/C(=C/c2cc[n+]([O-])cc2)SC(=S)N1c1cccc(C(F)(F)F)c1` [Compound 17, (Z)-4-((4-oxo-2-thioxo-3-(3-(trifluoromethyl)phenyl)thiazolidin-5-ylidene)methyl)pyridine 1-oxide], the IC50 at human wildtype CFTR [1] (setting [7]) is 8.7 ± 0.7 µM; at human wildtype CFTR [1] (setting [8]) it was 9 µM and 7 to 9 µM; on human wildtype CFTR [5] (setting [10]), 5 to 10 µM; at human wildtype CFTR [5] (Tables 1 and 2, read-out: IC50 (CFTR inhibition)), 5 to 10 µM. Besides, at human wildtype CFTR [1], the “inhibition of CFTR in short-circuit current analysis (in words)” value (“inhibition of CFTR” for short) is reported as “dose dependant inhibition”. Moreover, in series [4], the “solubility in saline / aqueous solubility” value is 264 µM (≈ 101 µg/mL).
`Cc1c(N2C(=O)/C(=C/c3ccc(C(=O)O)cc3)SC2=S)cccc1C(F)(F)F` [Compound 18, (Z)-4-((3-(2-methyl-3-(trifluoromethyl)phenyl)-4-oxo-2-thioxothiazolidin-5-ylidene)methyl)benzoic acid]: the IC50 on human wildtype CFTR [1] (setting [7]) is 8.2 ± 0.4 µM; on human wildtype CFTR [1] (setting [8]), 8 µM and 8 to 10 µM; on human wildtype CFTR [5] (setting [9]) it was 5 to 10 µM; at human wildtype CFTR [5] (setting [10]), 5 to 10 µM. Besides, the “inhibition of CFTR” value at human wildtype CFTR [1] is recorded as “dose dependant inhibition”. Moreover, the “% Cell viability 20 μM” value in the series with FRT cells stood at 89%. For the same molecule, the “Crystal violet staining at 50 μM (in words)” value in the series with FRT cells (50 μM) is “reduced”. In addition, in the series with FRT cells (50 μM), the “% Cell viability 50 μM” value is recorded as 72%. The “solubility in saline / aqueous solubility” value in series [4] amounted to 259 µM (≈ 110 µg/mL).
With `O=C(O)c1ccc(/C=C2\SC(=O)N(c3cccc(C(F)(F)F)c3)C2=O)cc1` [Compound 47, (Z)-4-((2,4-dioxo-3-(3-(trifluoromethyl)phenyl)thiazolidin-5-ylidene)methyl)benzoic acid], the IC50 on human wildtype CFTR [1] (setting [7]) was 1.4 ± 0.2 µM; at human wildtype CFTR [1] (setting [8]) it was 1 to 2 µM; on human wildtype CFTR [5] (setting [11]), 1 to 2 µM; at human wildtype CFTR [5] (setting [10]) it was 1 to 2 µM. Further, the “inhibition of CFTR” value on human wildtype CFTR [1] was “dose dependant inhibition”. In addition, the “reduction of CFTR inhibition potency relative to CFTRinh-172” value on human wildtype CFTR [1] (short-circuit current assays) is on record as 3.6 fold. Moreover, the “% Cell viability 20 μM” value with FRT cells came to 93%. The “% Cell viability 50 μM” value with FRT cells (50 μM) stood at 91%. Also, in series [4], the “increase of solubility in saline/water relative to CFTRinh-172” value is about 25 fold. Moreover, the “Solubility in saline” value in series [4] came out at 420 µM (≈ 165 µg/mL).
Take `O=C(O)c1ccc(NC(=S)C2SC(=S)N(c3cccc(C(F)(F)F)c3)C2=O)cc1O` (centres unmarked) [Compound 52, 2-hydroxy-4-(4-oxo-2-thioxo-3-(3-(trifluoromethyl)phenyl)thiazolidine-5-carbothioamido)benzoic acid]: the “water solubility (in words)” value in series [4] is “highly water soluble”. In addition, the IC50 at human wildtype CFTR [5] (setting [11]) and on human wildtype CFTR [5] (setting [10]) was 10 to 20 µM throughout. The “CFTR inhibitory activity (in words)” value at human wildtype CFTR [5] was “inactive”.
